Results published in patent US8796288B2, “Anhydrous crystalline forms of N-[1-(2-ethoxyethyl)-5-(N-ethyl-N-methylamino)-7-(4-methylpyridin-2-yl-amino)-1H-pyrazolo[4,3-d]pyrimidine-3-carbonyl]methanesulfonamide” (Pfizer Inc., priority 2005, dated 2014).
Entries after “also recorded” stand apart in the source; their conditions may differ. Blank lines part the entries; values can stand above or below the molecule they belong to.

What was measured:
[1] = Stability of Form B and Form C (bridging slurry studies, PXRD analysis); format: physicochemical
Procedure: Bridging studies were performed in the following solvent systems to determine the relative thermodynamic stabilities of Form B and Form C: (1) THF/H2O (50:50 volume/volume), (2) methyl ethyl ketone (“MEK”), (3) methanol, and (4) methanol/dichloromethane (DCM) (50:50 volume/volume). The MEK study was performed at room temperature while the studies with the other three solvent systems were performed at both 40° C. and 60° C. In each study a suspension of Form B in the appropriate solvent system was prepared. Approximately 10 mg of Form C was then added to each suspension. The suspensions were then allowed to slurry at the appropriate temperature for a specific period of time. The solvent system, temperature of the solvent system, and period of time over which the suspension was allowed to slurry are set forth below for each study: • (1) Study A: Slurried for 3 days in MEK at room temperature; • (2) Study B: Slurried for 3 days in THF/H2O (50:50) at 40° C.; • (3) Study C: Slurried for 3 days in THF/H2O (50:50) at 60° C.; • (4) Study D: Slurried for 21 days in Methanol at 40° C.; • (5) Study E: Slurried for 21 days in Methanol at 60° C.; • (6) Study F: Slurried for 5 days in Methanol/DCM at 40° C.; and • (7) Study G: Slurried for 21 days in Methanol/DCM at 60° C.
At the end of the specified time period, a sample was removed from each slurry and analyzed by PXRD. […]

[2] = Stability of Form A and Form B (slurry conversion in methanol with PXRD, DSC comparison); format: physicochemical
Procedure: Form A, Form B and Form C were each analyzed using differential scanning calorimetry (DSC). A TA Instruments Q1000 differential scanning calorimeter was used to perform each analysis. Each sample was heated from 25 to 300° C. at 20° C. per minute in an aluminium pan with the lid laid on top, with a nitrogen purge gas. The temperature of the melting endothermic peak was reported as the melting point.
Approximately 25 mg of Form A (see Example 3) was slurried at room temperature with 1 ml of methanol. […] A small sample was removed from the slurry.
The thermodynamically stabilities of Form A and Form B were compared as described below. First, approximately 25 mg of Form A was slurried in approximately 1 ml of methanol. […] A small sample was removed from the slurry.

Structure (SMILES): CCOCCn1nc(C(=O)NS(C)(=O)=O)c2nc(N(C)CC)nc(Nc3cc(C)ccn3)c21 [Form B, N-[1-(2-ethoxyethyl)-5-(N-ethyl-N-methylamino)-7-(4-methylpyridin-2-yl-amino)-1H-pyrazolo[4,3-d]pyrimidine-3-carbonyl]methanesulfonamide]
relative thermodynamic stability of Form B and Form C above the crossover point ([1]; temperatures above the crossover point): more thermodynamically stable than Form C; also recorded: most thermodynamically stable form | relative thermodynamic stability of Form A and Form B ([2]; from slurry conversion analysis and DSC analysis, ambient as well as elevated temperatures): more thermodynamically stable than Form A

crystalline form found by PXRD after slurrying ([2]; approximately 25 mg slurried in approximately 1 ml of methanol): Form B
Structure (SMILES): CCOCCn1nc(C(=O)NS(C)(=O)=O)c2nc(N(C)CC)nc(Nc3cc(C)ccn3)c21 [Form A, N-[1-(2-ethoxyethyl)-5-(N-ethyl-N-methylamino)-7-(4-methylpyridin-2-yl-amino)-1H-pyrazolo[4,3-d]pyrimidine-3-carbonyl]methanesulfonamide]

Structure (SMILES): CCOCCn1nc(C(=O)NS(C)(=O)=O)c2nc(N(C)CC)nc(Nc3cc(C)ccn3)c21 [Form C, N-[1-(2-ethoxyethyl)-5-(N-ethyl-N-methylamino)-7-(4-methylpyridin-2-yl-amino)-1H-pyrazolo[4,3-d]pyrimidine-3-carbonyl]methanesulfonamide]
relative thermodynamic stability of Form B and Form C below the crossover point ([1]; temperatures below the crossover point (including ambient)): more thermodynamically stable than Form B; also recorded: most thermodynamically stable form
